# In ChEMBL document CHEMBL1201861, “Genomics of Drug Sensitity in Cancer screening data, Wellcome Trust Sanger Institute”:
# How the values were obtained:
# Assay in all cases: cells
# SNU1 = format: functional, cell-based, Homo sapiens; conditions: Homo sapiens, SNU1;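 also: growth inhibition of human NCI-SNU-1 cells, measured with a cell viability assay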
# Description: SANGER: Inhibition of human NCI-SNU-1 cell growth in a cell viability assay.
# KM-H2 = format: functional, cell-based, Homo sapiens;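 also: growth inhibition of KM-H2 cells, read out by a cell viability assay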
# Description: SANGER: Inhibition of human KM-H2 cell growth in a cell viability assay.
# HC-1 = format: functional, cell-based, Homo sapiens;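 also: growth inhibition of HC-1 cells measured by a cell viability assay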
# Description: SANGER: Inhibition of human HC-1 cell growth in a cell viability assay.
# SW 962 = format: functional, cell-based, Homo sapiens;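 also: growth inhibition of human SW962 cells, read out by a cell viability assay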
# Description: SANGER: Inhibition of human SW962 cell growth in a cell viability assay.
# SJSA-1 = format: functional, cell-based, Homo sapiens;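 also: growth inhibition of human SJSA-1 cells, read out through a cell viability measurement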
# Description: SANGER: Inhibition of human SJSA-1 cell growth in a cell viability assay.
# NB12 = format: functional, cell-based, Homo sapiens;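 also: growth inhibition of human NB12 cells, read out by a cell viability assay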
# Description: SANGER: Inhibition of human NB12 cell growth in a cell viability assay.
# GR-ST = format: functional, cell-based, Homo sapiens
# Description: SANGER: Inhibition of human GR-ST cell growth in a cell viability assay.
# NCI-H2126 = format: functional, cell-based, Homo sapiens;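 also: growth inhibition of the cancer cell line, determined with a cell viability readout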
# Description: SANGER: Inhibition of human NCI-H2126 cell growth in a cell viability assay.
# ACN = format: functional, cell-based, Homo sapiens;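 also: growth inhibition of the human ACN cell line, read out via cell viability testing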
# Description: SANGER: Inhibition of human ACN cell growth in a cell viability assay.
# DMS-114 = format: functional, cell-based, Homo sapiens
# ES4 = format: functional, cell-based, Homo sapiens;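 also: growth inhibition of human ES4 cells, read out by a cell viability assay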
# Description: SANGER: Inhibition of human ES4 cell growth in a cell viability assay.
# MFM-223 = format: functional, cell-based, Homo sapiens
# Description: SANGER: Inhibition of human MFM-223 cell growth in a cell viability assay.
# HAL-01 = format: functional, cell-based, Homo sapiens;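 also: growth inhibition of human HAL-01 cells, read out with a cell viability assay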
# Description: SANGER: Inhibition of human HAL-01 cell growth in a cell viability assay.
# LOX IMVI = format: functional, cell-based, Homo sapiens
# Description: SANGER: Inhibition of human LOXIMVI cell growth in a cell viability assay.
# NCI-H1838 = format: functional, cell-based, Homo sapiens;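 also: growth inhibition of NCI-H1838 cells, determined with a cell viability readout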
# Description: SANGER: Inhibition of human NCI-H1838 cell growth in a cell viability assay.
# UACC-257 = format: functional, cell-based, Homo sapiens
# Description: SANGER: Inhibition of human UACC-257 cell growth in a cell viability assay.
# LB831-BLC = format: functional, cell-based, Homo sapiens;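 also: growth inhibition of LB831-BLC cells, read out with a cell viability assay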
# Description: SANGER: Inhibition of human LB831-BLC cell growth in a cell viability assay.
# Mo = format: functional, cell-based, Homo sapiens
# Description: SANGER: Inhibition of human Mo-T cell growth in a cell viability assay.
# SBC-1 = format: functional, cell-based, Homo sapiens;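 also: cell viability assay measuring growth inhibition of the SBC-1 cell line, IC50 being the concentration that halves growth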
# Description: SANGER: Inhibition of human SBC-1 cell growth in a cell viability assay.
# HCC1187 = format: functional, cell-based, Homo sapiens;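 also: growth inhibition of HCC1187 cells, read out with a cell viability assay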
# Description: SANGER: Inhibition of human HCC1187 cell growth in a cell viability assay.
# COLO-824 = format: functional, cell-based, Homo sapiens
# Description: SANGER: Inhibition of human COLO-824 cell growth in a cell viability assay.
# AM-38 = format: functional, cell-based, Homo sapiens;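 also: growth inhibition of AM-38 cells of human origin, read out by a cell viability assay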
# Description: SANGER: Inhibition of human AM-38 cell growth in a cell viability assay.
# MFH-ino = format: functional, cell-based, Homo sapiens;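 also: growth inhibition of human MFH-ino cells, read out by a cell viability assay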
# Description: SANGER: Inhibition of human MFH-ino cell growth in a cell viability assay.
# MZ2-MEL = format: functional, cell-based, Homo sapiens;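 also: growth inhibition of MZ2-MEL cells read out with a cell viability assay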
# Description: SANGER: Inhibition of human MZ2-MEL cell growth in a cell viability assay.
# HCC 2998 = format: functional, cell-based, Homo sapiens;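 also: growth inhibition of human HCC2998 cells, measured with a cell viability read-out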
# Description: SANGER: Inhibition of human HCC2998 cell growth in a cell viability assay.
# TE-9 = format: functional, cell-based, Homo sapiens;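 also: cell growth inhibition, measured with a cell viability readout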
# Description: SANGER: Inhibition of human TE-9 cell growth in a cell viability assay.
# HT = format: functional, cell-based, Homo sapiens
# Description: SANGER: Inhibition of human HT cell growth in a cell viability assay.
# L-428 = format: functional, cell-based, Homo sapiens
# Description: SANGER: Inhibition of human L-428 cell growth in a cell viability assay.
# SK-MEL-2 = format: functional, cell-based, Homo sapiens;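 also: growth inhibition of human SK-MEL-2 cells measured with a cell viability assay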
# Description: SANGER: Inhibition of human SK-MEL-2 cell growth in a cell viability assay.
# BB49-HNC = format: functional, cell-based, Homo sapiens;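 also: cell viability assay read-out, reported as inhibition of BB49-HNC cell growth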
# Description: SANGER: Inhibition of human BB49-HNC cell growth in a cell viability assay.
# A4-Fuk = format: functional, cell-based, Homo sapiens;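 also: growth inhibition of A4-Fuk cells, read out by a cell viability assay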
# Description: SANGER: Inhibition of human A4-Fuk cell growth in a cell viability assay.
# SH-4 = format: functional, cell-based, Homo sapiens;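 also: growth inhibition of SH-4 cells, read out with a cell viability assay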
# Description: SANGER: Inhibition of human SH-4 cell growth in a cell viability assay.
# SCH = format: functional, cell-based, Homo sapiens;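 also: growth inhibition of human SCH cells, read out in a cell viability assay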
# Description: SANGER: Inhibition of human SCH cell growth in a cell viability assay.
# LS-411N = format: functional, cell-based, Homo sapiens
# DJM-1 = format: functional, cell-based, Homo sapiens;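 also: growth inhibition of human DJM-1 cells, read out by a cell viability assay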
# Description: SANGER: Inhibition of human DJM-1 cell growth in a cell viability assay.
# SHP77 = format: functional, cell-based, Homo sapiens, SHP-77;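 also: growth inhibition of human SHP-77 cells measured by a cell viability assay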
# Description: SANGER: Inhibition of human SHP-77 cell growth in a cell viability assay.
# NCI-H1770 = format: functional, cell-based, Homo sapiens;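 also: growth inhibition of NCI-H1770 cells determined with a viability readout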
# Description: SANGER: Inhibition of human NCI-H1770 cell growth in a cell viability assay.
# J-RT3-T3-5 = format: functional, cell-based, Homo sapiens;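 also: cell viability assay measuring growth inhibition of human J-RT3-T3-5 cells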
# Description: SANGER: Inhibition of human J-RT3-T3-5 cell growth in a cell viability assay.
# ONS-76 = format: functional, cell-based, Homo sapiens;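 also: growth inhibition of human ONS-76 cells, read out with a cell viability assay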
# Description: SANGER: Inhibition of human ONS-76 cell growth in a cell viability assay.
# NCI-N87 = format: functional, cell-based, Homo sapiens;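 also: growth inhibition of human NCI-N87 cells, read out with a cell viability assay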
# Description: SANGER: Inhibition of human NCI-N87 cell growth in a cell viability assay.
# A101D = format: functional, cell-based, Homo sapiens;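 also: growth inhibition of the cell line, measured with a viability assay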
# Description: SANGER: Inhibition of human A101D cell growth in a cell viability assay.
# SK-UT-1 = format: functional, cell-based, Homo sapiens;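 also: growth inhibition of SK-UT-1 cells, measured by a cell viability assay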
# Description: SANGER: Inhibition of human SK-UT-1 cell growth in a cell viability assay.
# KLE = format: functional, cell-based, Homo sapiens;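 also: growth inhibition of human KLE cells, read out with a cell viability assay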
# Description: SANGER: Inhibition of human KLE cell growth in a cell viability assay.
# NCI-H1299 = format: functional, cell-based, Homo sapiens;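 also: growth inhibition of human NCI-H1299 cells, read out by a cell viability assay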
# Description: SANGER: Inhibition of human NCI-H1299 cell growth in a cell viability assay.
# RPMI-8226 = format: functional, cell-based, Homo sapiens
# Description: SANGER: Inhibition of human RPMI-8226 cell growth in a cell viability assay.
# A3-KAW = format: functional, cell-based, Homo sapiens;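 also: growth inhibition of human A3-KAW cells, read out with a cell viability assay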
# Description: SANGER: Inhibition of human A3-KAW cell growth in a cell viability assay.
# COR-L88 = format: functional, cell-based, Homo sapiens; conditions: cor-l88;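 also: growth inhibition of COR-L88 cells, read out with a cell viability assay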
# Description: SANGER: Inhibition of human COR-L88 cell growth in a cell viability assay.
# HCC2218 = format: functional, cell-based, Homo sapiens; conditions: hcc2218;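 also: cell viability assay read-out, with IC50 given as the concentration that inhibits growth of the cell line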
# Description: SANGER: Inhibition of human HCC2218 cell growth in a cell viability assay.
compound,measurement,setting,value
CS(=O)(=O)c1ccc(C(=O)Nc2ccc(Cl)c(-c3ccccn3)c2)c(Cl)c1 [VISMODEGIB],IC50,SNU1,> 10 µM
same,IC50,"KM-H2; Homo sapiens, KM-H2",> 10 µM
same,IC50,"HC-1; Homo sapiens, HC-1",> 10 µM
same,IC50,"SW 962; Homo sapiens, SW 962",> 10 µM
same,IC50,"SJSA-1; Homo sapiens, SJSA-1",> 10 µM
same,IC50,"NB12; Homo sapiens, NB12",> 10 µM
same,IC50,"GR-ST; Homo sapiens, GR-ST",> 10 µM
same,IC50,"NCI-H2126; Homo sapiens, NCI-H2126",> 10 µM
same,IC50,"ACN; Homo sapiens, ACN",8.5 µM
same,IC50,"DMS-114; Homo sapiens, DMS-114",> 10 µM
same,IC50,"ES4; Homo sapiens, ES4",> 10 µM
same,IC50,"MFM-223; Homo sapiens, MFM-223",> 10 µM
same,IC50,"HAL-01; Homo sapiens, HAL-01",> 10 µM
same,IC50,"LOX IMVI; Homo sapiens, LOX IMVI",> 10 µM
same,IC50,"NCI-H1838; Homo sapiens, NCI-H1838",> 10 µM
same,IC50,"UACC-257; Homo sapiens, UACC-257",> 10 µM
same,IC50,"LB831-BLC; Homo sapiens, LB831-BLC",> 10 µM
same,IC50,"Mo; Homo sapiens, Mo",> 10 µM
same,IC50,"SBC-1; Homo sapiens, SBC-1",> 10 µM
same,IC50,"HCC1187; Homo sapiens, HCC1187",> 10 µM
same,IC50,"COLO-824; Homo sapiens, COLO-824",> 10 µM
same,IC50,"AM-38; Homo sapiens, AM-38",> 10 µM
same,IC50,"MFH-ino; Homo sapiens, MFH-ino",> 10 µM
same,IC50,"MZ2-MEL; Homo sapiens, MZ2-MEL",> 10 µM
same,IC50,"HCC 2998; Homo sapiens, HCC 2998",> 10 µM
same,IC50,"TE-9; Homo sapiens, TE-9",> 10 µM
same,IC50,"HT; Homo sapiens, HT",> 10 µM
same,IC50,"L-428; Homo sapiens, L-428",> 10 µM
same,IC50,"SK-MEL-2; Homo sapiens, SK-MEL-2",> 10 µM
same,IC50,"BB49-HNC; Homo sapiens, BB49-HNC",> 10 µM
same,IC50,"A4-Fuk; Homo sapiens, A4-Fuk",> 10 µM
same,IC50,"SH-4; Homo sapiens, SH-4",> 10 µM
same,IC50,"SCH; Homo sapiens, SCH",> 10 µM
same,IC50,"LS-411N; Homo sapiens, LS-411N",> 10 µM
same,IC50,"DJM-1; Homo sapiens, DJM-1",> 10 µM
same,IC50,"SHP77; Homo sapiens, SHP77",> 10 µM
same,IC50,"NCI-H1770; Homo sapiens, NCI-H1770",> 10 µM
same,IC50,"J-RT3-T3-5; Homo sapiens, J-RT3-T3-5",> 10 µM
same,IC50,"ONS-76; Homo sapiens, ONS-76",> 10 µM
same,IC50,"NCI-N87; Homo sapiens, NCI-N87",> 10 µM
same,IC50,"A101D; Homo sapiens, A101D",> 10 µM
same,IC50,"SK-UT-1; Homo sapiens, SK-UT-1",> 10 µM
same,IC50,"KLE; Homo sapiens, KLE",> 10 µM
same,IC50,"NCI-H1299; Homo sapiens, NCI-H1299",> 10 µM
same,IC50,"RPMI-8226; Homo sapiens, RPMI-8226",> 10 µM
same,IC50,"A3-KAW; Homo sapiens, A3-KAW",> 10 µM
CISPLATIN,IC50,KM-H2; km-h2,450 µM
same,IC50,HC-1; hc-1,9.5 µM
same,IC50,SW 962; sw 962,64.6 µM
same,IC50,SJSA-1; sjsa-1,23 µM
same,IC50,NB12; nb12,166 µM
same,IC50,GR-ST; gr-st,7.5 µM
same,IC50,NCI-H2126; nci-h2126,221 µM
same,IC50,ACN; acn,34.3 µM
same,IC50,DMS-114; dms-114,19.6 µM
same,IC50,ES4; es4,1.6 µM
same,IC50,MFM-223; mfm-223,615 µM
same,IC50,HAL-01; hal-01,109 µM
same,IC50,COR-L88,319 µM
same,IC50,LOX IMVI; lox imvi,13.3 µM
same,IC50,NCI-H1838; nci-h1838,281 µM
same,IC50,UACC-257; uacc-257,108 µM
same,IC50,LB831-BLC; lb831-blc,225 µM
same,IC50,Mo; mo,892 µM
same,IC50,SBC-1; sbc-1,141 µM
same,IC50,HCC1187; hcc1187,117 µM
same,IC50,COLO-824; colo-824,114 µM
same,IC50,AM-38; am-38,225 µM
same,IC50,MFH-ino; mfh-ino,1340 µM
same,IC50,MZ2-MEL; mz2-mel,13.4 µM
same,IC50,HCC 2998; hcc 2998,271 µM
same,IC50,TE-9; te-9,15.4 µM
same,IC50,HT; ht,252 µM
same,IC50,L-428; l-428,18.9 µM
same,IC50,SK-MEL-2; sk-mel-2,226 µM
same,IC50,BB49-HNC; bb49-hnc,48.2 µM
same,IC50,A4-Fuk; a4-fuk,47.5 µM
same,IC50,SH-4; sh-4,68.7 µM
same,IC50,SCH; sch,13.2 µM
same,IC50,LS-411N; ls-411n,66.4 µM
same,IC50,DJM-1; djm-1,6.36 µM
same,IC50,SHP77; shp-77,602 µM
same,IC50,NCI-H1770; nci-h1770,417 µM
same,IC50,J-RT3-T3-5; j-rt3-t3-5,148 µM
same,IC50,ONS-76; ons-76,3.95 µM
same,IC50,HCC2218,398 µM
same,IC50,NCI-N87; nci-n87,33 µM
same,IC50,A101D; a101d,21.7 µM
same,IC50,SK-UT-1; sk-ut-1,12.9 µM
same,IC50,KLE; kle,137 µM
same,IC50,NCI-H1299; nci-h1299,26.8 µM
same,IC50,RPMI-8226; rpmi-8226,192 µM
same,IC50,A3-KAW; a3-kaw,164 µM
